Patent US20230256108A1, “A DRUG CONJUGATE AND APPLICATIONS THEREOF” (GENEQUANTUM HEALTHCARE (SUZHOU) CO., LTD., priority 2019, published 2023)
Like-named read-outs stand apart in the source and are kept apart here. Non-standard residues stand in square brackets, D forms with d. Residues, ends and D or L forms follow the SMILES beside them. *: point of attachment. Dolaproine = CO[C@@H]([C@@H]1CCCN1)[C@@H](C)C(=O)O; Hexanoyl(6-maleimido) = O=C1C=CC(=O)N1CCCCCC(=O)*; Dil = CC[C@H](C)[C@H](NC)[C@@H](CC(=O)O)OC; NMeV = CN[C@H](C(=O)O)C(C)C

Key:
[1] = tested on: HCC1954; assay: Cytotoxicity, HER2 high-expressing cancer cells; format: cell-based, human
[2] = tested on: SK-BR-3; assay: Cytotoxicity, HER2 high-expressing cancer cells; format: cell-based, human
[3] = tested on: BT-474; assay: Cytotoxicity, HER2 high-expressing cancer cells; format: cell-based
[4] = tested on: NCI-N87; assay: Cytotoxicity, HER2 high-expressing cancer cells; format: cell-based, human
[5] = tested on: MDA-MB-231; assay: Cytotoxicity, HER2 low-expressing or HER2-negative cells; format: cell-based; settings: Homo sapiens
Description: (§1) Cytotoxicity experiments were performed using human breast cancer cells MDA-MB-231, MDA-MB-468, which are HER2 low-expressing or HER2-negative.

[6] = tested on: MDA-MB-468; assay: as above; format: cell-based; settings: Homo sapiens
Description: as §1

Row | SMILES | IC50 [1] | IC50 [2] | IC50 [3] | IC50 [4] | IC50 ([1]; Homo sapiens, HCC1954) | IC50 ([2]; Homo sapiens, SK-BR-3) | IC50 ([3]; Homo sapiens, BT-474) | IC50 ([4]; Homo sapiens, NCI-N87) | IC50 [5] | IC50 [6]
1 | COc1cc2cc(c1Cl)N(C)C(=O)C[C@H](OC(=O)[C@H](C)N(C)C(=O)CCS)[C@]1(C)O[C@H]1[C@H](C)[C@@H]1C[C@@](O)(NC(=O)O1)[C@H](OC)/C=C/C=C(\C)C2 [DM1] | 2.67 nM | 1.92 nM | 6.24 nM | 6.97 nM | – | – | – | – | – | –
2 | CC[C@H](C)[C@@H]([C@@H](CC(=O)N1CCC[C@H]1[C@H](OC)[C@@H](C)C(=O)N[C@@H](Cc1ccccc1)C(=O)O)OC)N(C)C(=O)[C@H](NC(=O)[C@H](C(C)C)N(C)C(=O)CCCCCN1C(=O)CC(SCC(NC(=O)CCOCCOCCOCCOCCNC(=O)CNC(=O)CNC(=O)CN)C(N)=O)C1=O)C(C)C (stereo partly drawn) [IM102 (ring closed)] | – | – | – | – | 160 nM | 383 nM | 267 nM | 690 nM | 1710 nM | 1080 nM
3 | CC[C@H](C)[C@@H]([C@@H](CC(=O)N1CCC[C@H]1[C@H](OC)[C@@H](C)C(=O)N[C@@H](Cc1ccccc1)C(=O)O)OC)N(C)C(=O)[C@@H](NC(=O)[C@@H](NC)C(C)C)C(C)C [MMAF, monomethyl auristatin F] (H-[NMeV]V[Dil][Dolaproine]F-OH) | 39.6 nM | 54.3 nM | 44.7 nM | 41.4 nM | – | – | – | – | – | –
4 | CC[C@H](C)[C@@H]([C@@H](CC(=O)N1CCC[C@H]1[C@H](OC)[C@@H](C)C(=O)N[C@@H](Cc1ccccc1)C(=O)O)OC)N(C)C(=O)[C@@H](NC(=O)[C@H](C(C)C)N(C)C(=O)CCCCCN1C(=O)C=CC1=O)C(C)C [mc-MMAF] ({Hexanoyl(6-maleimido)}-[NMeV]V[Dil][Dolaproine]F-OH) | 116 nM | 98.6 nM | 56.1 nM | 208 nM | – | – | – | – | – | –
